The subject of the test is MV-4-11 cells. As to the kind of experiment: Gene expression microarray analysis (Affymetrix PrimeView) and GSEA. It counts as cell-based, human. Also noted: RFU PODN (11730768_x_at) / Fold change /veh PODN (11730768_x_at) / RFU LINC00158 (11744669_a_at) / Fold change /veh LINC00158 (11744669_a_at) / RFU DUSP10 (11751237_a_at) / Fold change /veh DUSP10 (11751237_a_at) / RFU ID3 (11757404_x_at) / Fold change /veh ID3 (11757404_x_at) / RFU PLEKHG5 (11737974_s_at) / Fold change /veh PLEKHG5 (11737974_s_at) / RFU LRRC4B (11730491_at) / Fold change /veh LRRC4B (11730491_at) / RFU GIMAP4 (11747438_a_at) / Fold change /veh GIMAP4 (11747438_a_at) / RFU KRT8 (11758183_x_at) / Fold change /veh KRT8 (11758183_x_at) / RFU CNN1 (11734310_a_at) / Fold change /veh CNN1 (11734310_a_at) / RFU VPS37D (11726825_at) / Fold change /veh VPS37D (11726825_at) / RFU C10orf10 (11716522_x_at) / Fold change /veh C10orf10 (11716522_x_at) / RFU KIR2DL2 /// KIR2DL4 /// KIR2DL5A /// KIR2DL5B /// KIR2DS1 /// KIR2DS2 /// KIR2DS3 /// KIR2DS4 /// KIR3DL3 /// KIR3DL3 /// KIR3DS1 (11738374_at) / Fold change /veh KIR2DL2 /// KIR2DL4 /// KIR2DL5A /// KIR2DL5B /// KIR2DS1 /// KIR2DS2 /// KIR2DS3 /// KIR2DS4 /// KIR3DL3 /// KIR3DL3 /// KIR3DS1 (11738374_at) / RFU C1QL1 (11718748_at) / Fold change /veh C1QL1 (11718748_at) / RFU TMPRSS4 (11747572_a_at) / Fold change /veh TMPRSS4 (11747572_a_at) / RFU HAMP (11756126_x_at) / Fold change /veh HAMP (11756126_x_at) / RFU RNFT2 (11725882_a_at) / Fold change /veh RNFT2 (11725882_a_at) / RFU NR4A2 (11747474_a_at) / Fold change /veh NR4A2 (11747474_a_at) / RFU ABCC12 (11746883_a_at) / Fold change /veh ABCC12 (11746883_a_at) / RFU TMEM136 (11760407_x_at) / Fold change /veh TMEM136 (11760407_x_at) / RFU CLDN22 /// WWC2 (11732394_at) / Fold change /veh CLDN22 /// WWC2 (11732394_at) / RFU HLA-DPB1 (11760878_x_at) / Fold change /veh HLA-DPB1 (11760878_x_at) / RFU SPINT1 (11716480_a_at) / Fold change /veh SPINT1 (11716480_a_at) / RFU GAP43 (11754022_s_at) / Fold change /veh GAP43 (11754022_s_at) / RFU A4GNT (11735810_at) / Fold change /veh A4GNT (11735810_at) / RFU PRB3 (11715151_x_at) / Fold change /veh PRB3 (11715151_x_at) / RFU TUBB4B (11761932_at) / Fold change /veh TUBB4B (11761932_at) / RFU CAPN14 (11732068_a_at) / Fold change /veh CAPN14 (11732068_a_at) / RFU TMCC2 (11721928_a_at) / Fold change /veh TMCC2 (11721928_a_at) / RFU IRGQ (11745062_a_at) / Fold change /veh IRGQ (11745062_a_at) / RFU FAM174B (11720279_a_at) / Fold change /veh FAM174B (11720279_a_at) / RFU TMPRSS4 (11748680_a_at) / Fold change /veh TMPRSS4 (11748680_a_at) / RFU FAM212B (11763350_a_at) / Fold change /veh FAM212B (11763350_a_at) / RFU PLEKHG5 (11743358_a_at) / Fold change /veh PLEKHG5 (11743358_a_at) / RFU ZSCAN30 (11745921_a_at) / Fold change /veh ZSCAN30 (11745921_a_at) / RFU CMKLR1 (11741424_a_at) / Fold change /veh CMKLR1 (11741424_a_at) / RFU LOC101060620 /// MAPK8IP1 (11723275_at) / Fold change /veh LOC101060620 /// MAPK8IP1 (11723275_at) / RFU SPTSSB (11747773_x_at) / Fold change /veh SPTSSB (11747773_x_at) / RFU PRSS12 (11739890_at) / Fold change /veh PRSS12 (11739890_at) / RFU BIN1 (11741810_x_at) / Fold change /veh BIN1 (11741810_x_at) / RFU WNT11 (11732464_a_at) / Fold change /veh WNT11 (11732464_a_at) / RFU C10orf10 (11716521_a_at) / Fold change /veh C10orf10 (11716521_a_at) / RFU C5orf56 (11738089_at) / Fold change /veh C5orf56 (11738089_at) / RFU CYB561 (11721691_x_at) / Fold change /veh CYB561 (11721691_x_at) / RFU ANKRD19P (11752326_a_at) / Fold change /veh ANKRD19P (11752326_a_at) / RFU OR2T12 /// OR2T33 /// OR2T8 (11738714_s_at) / Fold change /veh OR2T12 /// OR2T33 /// OR2T8 (11738714_s_at) / RFU VCAN (11748164_a_at) / Fold change /veh VCAN (11748164_a_at) / RFU JSRP1 (11732532_at) / Fold change /veh JSRP1 (11732532_at) / RFU KRTAP10-11 (11738290_x_at) / Fold change /veh KRTAP10-11 (11738290_x_at) / RFU MYO3A (11730013_a_at) / Fold change /veh MYO3A (11730013_a_at) / RFU EBF3 (11725865_a_at) / Fold change /veh EBF3 (11725865_a_at) / RFU CAMK2N1 (11719241_x_at) / Fold change /veh CAMK2N1 (11719241_x_at) / RFU C5orf56 (11738088_a_at) / Fold change /veh C5orf56 (11738088_a_at) / RFU OLFML3 (11715873_a_at) / Fold change /veh OLFML3 (11715873_a_at) / RFU LOC100653217 /// NTM (11731650_a_at) / Fold change /veh LOC100653217 /// NTM (11731650_a_at) / RFU MAPK11 (11762145_a_at) / Fold change /veh MAPK11 (11762145_a_at) / RFU FIZ1 (11724087_x_at) / Fold change /veh FIZ1 (11724087_x_at) / RFU OASL (11726364_x_at) / Fold change /veh OASL (11726364_x_at) / RFU SOX15 (11748057_x_at) / Fold change /veh SOX15 (11748057_x_at) / RFU CD79A (11719716_a_at) / Fold change /veh CD79A (11719716_a_at) / RFU HIST1H1D (11736915_at) / Fold change /veh HIST1H1D (11736915_at) / RFU CASKIN2 (11723855_a_at) / Fold change /veh CASKIN2 (11723855_a_at) / RFU LOC730098 (11760151_x_at) / Fold change /veh LOC730098 (11760151_x_at) / RFU OR4N2 (11742367_at) / Fold change /veh OR4N2 (11742367_at) / RFU PRRT2 (11749266_a_at) / Fold change /veh PRRT2 (11749266_a_at) / RFU SNX32 (11753110_a_at) / Fold change /veh SNX32 (11753110_a_at) / RFU CDHR5 (11726645_a_at) / Fold change /veh CDHR5 (11726645_a_at) / RFU RCAN1 (11760418_a_at) / Fold change /veh RCAN1 (11760418_a_at) / RFU FAM167A (11723789_a_at) / Fold change /veh FAM167A (11723789_a_at) / RFU FAM26E (11764081_at) / Fold change /veh FAM26E (11764081_at) / RFU ISYNA1 (11749810_s_at) / Fold change /veh ISYNA1 (11749810_s_at) / RFU ACY1 (11761880_at) / Fold change /veh ACY1 (11761880_at) / RFU 11764098_at / Fold change /veh 11764098_at / RFU SAMD14 (11745864_x_at) / Fold change /veh SAMD14 (11745864_x_at) / RFU NPB (11741838_a_at) / Fold change /veh NPB (11741838_a_at) / RFU TMPRSS6 (11731388_a_at) / Fold change /veh TMPRSS6 (11731388_a_at) / RFU KRTAP10-2 (11738614_at) / Fold change /veh KRTAP10-2 (11738614_at) / RFU ARHGAP8 /// PRR5-ARHGAP8 (11727945_x_at) / Fold change /veh ARHGAP8 /// PRR5-ARHGAP8 (11727945_x_at) / RFU KRTAP5-7 /// NADSYN1 (11734609_at) / Fold change /veh KRTAP5-7 /// NADSYN1 (11734609_at) / RFU RASL12 (11751679_a_at) / Fold change /veh RASL12 (11751679_a_at) / RFU CDKN2B (11736163_a_at) / Fold change /veh CDKN2B (11736163_a_at) / RFU PRF1 (11729649_at) / Fold change /veh PRF1 (11729649_at) / RFU, ZNF638 /// ZNF638-IT1 / Fold change vs veh, ZNF638 /// ZNF638-IT1 / RFU, PANK3 / Fold change vs veh, PANK3 / RFU, SH3YL1 / Fold change vs veh, SH3YL1 / RFU, ZEB2 / Fold change vs veh, ZEB2 / RFU, NRIP1 / Fold change vs veh, NRIP1 / RFU, PTTG1IP / Fold change vs veh, PTTG1IP / RFU, CAPN2 / Fold change vs veh, CAPN2 / RFU, MED14 / Fold change vs veh, MED14 / RFU, SNORA58 / Fold change vs veh, SNORA58 / RFU, C1orf63 / Fold change vs veh, C1orf63 / RFU, LRRFIP1 / Fold change vs veh, LRRFIP1 / RFU, NDUFAF7 / Fold change vs veh, NDUFAF7 / RFU, SLC12A2 / Fold change vs veh, SLC12A2 / RFU, IBTK / Fold change vs veh, IBTK / RFU, ESF1 / Fold change vs veh, ESF1 / Fold change vs veh, TMEM50B / RFU, TAOK1 / Fold change vs veh, TAOK1 / RFU, ACBD3 / Fold change vs veh, ACBD3 / RFU, TMA16 / Fold change vs veh, TMA16 / RFU, RWDD3 / Fold change vs veh, RWDD3 / RFU, BCAT1 / Fold change vs veh, BCAT1 / RFU, EDEM3 / Fold change vs veh, EDEM3 / RFU, TMEM33 / Fold change vs veh, TMEM33 / RFU, WDR75 / Fold change vs veh, WDR75 / RFU, AHCTF1 / Fold change vs veh, AHCTF1 / RFU, TFRC / Fold change vs veh, TFRC / RFU, ZDHHC17 / Fold change vs veh, ZDHHC17 / RFU, NOM1 / Fold change vs veh, NOM1 / RFU, ARL8B / Fold change vs veh, ARL8B / RFU, ZBTB11 / Fold change vs veh, ZBTB11 / RFU, TAMM41 / Fold change vs veh, TAMM41 / RFU, KIAA1704 /// LOC100996395 / Fold change vs veh, KIAA1704 /// LOC100996395 / RFU, ING1 / Fold change vs veh, ING1 / RFU, TRMT61B / Fold change vs veh, TRMT61B / RFU, FUBP3 / Fold change vs veh, FUBP3 / RFU, TP53 / Fold change vs veh, TP53 / RFU, TNKS2 / Fold change vs veh, TNKS2 / RFU, ZFP14 / Fold change vs veh, ZFP14 / RFU, ACTR2 / Fold change vs veh, ACTR2 / RFU, PPP3R1 / Fold change vs veh, PPP3R1 / RFU, PIK3R1 / Fold change vs veh, PIK3R1 / RFU, HNRNPA1 / Fold change vs veh, HNRNPA1 / RFU, RNF170 / Fold change vs veh, RNF170 / RFU, ZNF28 / Fold change vs veh, ZNF28 / RFU, RNGTT / Fold change vs veh, RNGTT / RFU, OGT / Fold change vs veh, OGT / RFU, BRD1 / Fold change vs veh, BRD1 / RFU, MARS / Fold change vs veh, MARS / RFU, ZNF655 / Fold change vs veh, ZNF655 / RFU, FAHD1 / Fold change vs veh, FAHD1 / RFU, BDP1 / Fold change vs veh, BDP1 / RFU, LRRCC1 / Fold change vs veh, LRRCC1 / RFU, ARID1A / Fold change vs veh, ARID1A / RFU, ZNF146 / Fold change vs veh, ZNF146 / RFU, ZNF330 / Fold change vs veh, ZNF330 / RFU, GPN3 / Fold change vs veh, GPN3 / RFU, C9orf123 / Fold change vs veh, C9orf123 / RFU, N4BP2L2 / Fold change vs veh, N4BP2L2 / RFU, ARFIP1 / Fold change vs veh, ARFIP1 / RFU, FAM179B / Fold change vs veh, FAM179B / RFU, BCL10 / Fold change vs veh, BCL10 / RFU, UHRF1BP1L / Fold change vs veh, UHRF1BP1L / RFU, BET1 / Fold change vs veh, BET1 / RFU, CNOT2 / Fold change vs veh, CNOT2 / RFU, ZNF268 / Fold change vs veh, ZNF268 / Fold change vs veh, ZNF507 / RFU, DGCR2 / Fold change vs veh, DGCR2 / RFU, WDSUB1 / Fold change vs veh, WDSUB1 / Fold change vs veh, HSP90B1 /// MIR3652 / RFU, ADSS / Fold change vs veh, ADSS / RFU, GK / Fold change vs veh, GK / RFU, ZNF148 / Fold change vs veh, ZNF148 / RFU, TAF9 / Fold change vs veh, TAF9 / RFU, SLC1A5 / Fold change vs veh, SLC1A5 / RFU, SLMO2 / Fold change vs veh, SLMO2 / RFU, ABCC4 / Fold change vs veh, ABCC4 / RFU, LOC101060439 /// RAP1B / Fold change vs veh, LOC101060439 /// RAP1B / RFU, RFX7 / Fold change vs veh, RFX7 / RFU, GTPBP10 / Fold change vs veh, GTPBP10 / RFU, CNEP1R1 / Fold change vs veh, CNEP1R1 / RFU, BIVM-ERCC5 /// ERCC5 / Fold change vs veh, BIVM-ERCC5 /// ERCC5 / RFU, ILF3 / Fold change vs veh, ILF3 / RFU 11762660_at / Fold change /veh 11762660_at / RFU VCAN (11757783_s_at) / Fold change /veh VCAN (11757783_s_at) / RFU DDX43 (11728927_at) / Fold change /veh DDX43 (11728927_at) / RFU KRT8 (11758188_x_at) / Fold change /veh KRT8 (11758188_x_at) / RFU NKD1 (11759106_at) / Fold change /veh NKD1 (11759106_at) / RFU SRD5A1 (11742802_a_at) / Fold change /veh SRD5A1 (11742802_a_at) / RFU TPSAB1 /// TPSB2 (11721975_s_at) / Fold change /veh TPSAB1 /// TPSB2 (11721975_s_at) / RFU GSTM3 (11746129_a_at) / Fold change /veh GSTM3 (11746129_a_at) / RFU IL23R (11737362_x_at) / Fold change /veh IL23R (11737362_x_at) / RFU TMEM51 (11727254_a_at) / Fold change /veh TMEM51 (11727254_a_at) / RFU PIWIL2 (11732686_x_at) / Fold change /veh PIWIL2 (11732686_x_at) / RFU ORM1 (11744905_x_at) / Fold change /veh ORM1 (11744905_x_at) / RFU CCDC152 (11743942_at) / Fold change /veh CCDC152 (11743942_at) / RFU ECM1 (11717891_a_at) / Fold change /veh ECM1 (11717891_a_at) / RFU IL23R (11748794_a_at) / Fold change /veh IL23R (11748794_a_at) / RFU TNFAIP8L3 (11732012_x_at) / Fold change /veh TNFAIP8L3 (11732012_x_at) / RFU MBOAT4 (11741988_at) / Fold change /veh MBOAT4 (11741988_at) / RFU 11764193_at / Fold change /veh 11764193_at / RFU TMEM53 (11763286_at) / Fold change /veh TMEM53 (11763286_at) / RFU MAGEB2 (11727129_at) / Fold change /veh MAGEB2 (11727129_at) / RFU TMEM200A (11744735_a_at) / Fold change /veh TMEM200A (11744735_a_at) / RFU CCDC152 (11751479_a_at) / Fold change /veh CCDC152 (11751479_a_at) / RFU FAM211A (11726209_a_at) / Fold change /veh FAM211A (11726209_a_at) / RFU RGS16 (11746705_a_at) / Fold change /veh RGS16 (11746705_a_at) / RFU VCAN (11755009_s_at) / Fold change /veh VCAN (11755009_s_at) / RFU RHOB (11743442_s_at) / Fold change /veh RHOB (11743442_s_at) / RFU RGS16 (11720943_a_at) / Fold change /veh RGS16 (11720943_a_at) / RFU RGS16 (11720944_at) / Fold change /veh RGS16 (11720944_at) / RFU, VPS4B / Fold change vs veh, VPS4B / RFU, CREB1 / Fold change vs veh, CREB1 / RFU, DNAJC13 / Fold change vs veh, DNAJC13 / RFU, GNAQ / Fold change vs veh, GNAQ / RFU, CDK5R1 / Fold change vs veh, CDK5R1 / RFU, ZRANB3 / Fold change vs veh, ZRANB3 / RFU, CUL4A / Fold change vs veh, CUL4A / RFU, CCNY / Fold change vs veh, CCNY / RFU, UFL1 / Fold change vs veh, UFL1 / RFU, COG3 / Fold change vs veh, COG3 / RFU, DIAPH2 / Fold change vs veh, DIAPH2 / RFU, SKA2 / Fold change vs veh, SKA2 / RFU, AFF3 / Fold change vs veh, AFF3 / RFU, LMF1 / Fold change vs veh, LMF1 / RFU, IPO11 / Fold change vs veh, IPO11 / RFU, DFFB / Fold change vs veh, DFFB / RFU, FOXP1 / Fold change vs veh, FOXP1 / RFU, CARD8 / Fold change vs veh, CARD8 / RFU, STRN3 / Fold change vs veh, STRN3 / RFU, ADK / Fold change vs veh, ADK / RFU, RASSF2 / Fold change vs veh, RASSF2 / RFU, WIPF1 / Fold change vs veh, WIPF1 / RFU, LARP1B / Fold change vs veh, LARP1B / RFU, RASA1 / Fold change vs veh, RASA1 / RFU, RB1 / Fold change vs veh, RB1 / RFU, PPFIA1 / Fold change vs veh, PPFIA1 / RFU, MAT2A / Fold change vs veh, MAT2A / RFU, CCT5 / Fold change vs veh, CCT5 / RFU, WDR92 / Fold change vs veh, WDR92 / RFU, CUX1 / Fold change vs veh, CUX1 / RFU, TTC7A / Fold change vs veh, TTC7A / RFU, TMEM135 / Fold change vs veh, TMEM135 / RFU, DEPTOR / Fold change vs veh, DEPTOR / RFU, CPM / Fold change vs veh, CPM / RFU, DNAJB6 / Fold change vs veh, DNAJB6 / RFU, CACNA2D3 / Fold change vs veh, CACNA2D3 / RFU, DTX4 / Fold change vs veh, DTX4 / RFU, TFCP2 / Fold change vs veh, TFCP2 / RFU, GMCL1 /// GMCL1P1 / Fold change vs veh, GMCL1 /// GMCL1P1 / RFU, AEBP2 / Fold change vs veh, AEBP2 / RFU, SNHG1 /// SNORD22 /// SNORD25 /// SNORD26 /// SNORD27 /// SNORD28 /// SNORD29 /// SNORD31 / Fold change vs veh, SNHG1 /// SNORD22 /// SNORD25 /// SNORD26 /// SNORD27 /// SNORD28 /// SNORD29 /// SNORD31 / Fold change (Aza/veh), C12orf56 (ProbeSet 11735607_a_at) / Fold change (ACY-1035/veh), C12orf56 (ProbeSet 11735607_a_at) / Fold change (Aza/veh), FGFR1OP (ProbeSet 11751329_s_at) / Fold change (ACY-1035/veh), FGFR1OP (ProbeSet 11751329_s_at) / Fold change (Aza/veh), VPS36 (ProbeSet 11739960_a_at) / Fold change (ACY-1035/veh), VPS36 (ProbeSet 11739960_a_at) / RFU SYPL1 (11715823_x_at) / Fold change /veh SYPL1 (11715823_x_at) / RFU IGFBP7 (11715501_s_at) / Fold change /veh IGFBP7 (11715501_s_at) / RFU REEP3 (11722064_at) / Fold change /veh REEP3 (11722064_at) / RFU IGLL1 (11728026_x_at) / Fold change /veh IGLL1 (11728026_x_at): dose or concentration left out as unconfirmed. The conditions noted are these: MV-4-11 cells, 48 hours.

As for `Nc1ncn([C@@H]2O[C@H](CO)[C@@H](O)[C@H]2O)c(=O)n1` [azacitidine], the “RFU ACY1 (11761880_at)” value is on record as 18.62 RFU.
